Patent US8080632B2, “Peptide mimics of melanocyte stimulating hormone” (The Feinstein Institute for Medical Research, priority 2005, dated 2011)

How the values were obtained:
[1] = test system: Macrophage-like RAW cells; assay: Structure function: inhibition of LPS (4 ng/ml)-stimulated TNF release; format: cell-based, murine; conditions: full range of the dose-response curve
RAW cells = assay: Cyclic-AMP production in RAW cells; format: cell-based, murine; conditions: FIG. 8

EFG-2: C-terminus of human mitochondrial EF-G2: TLTSGSATFALELSTYQAMNPQDQNTLLNRRSGLT (listed as Homo sapiens)
activity in suppressing TNF release relative to MECO-1 [1]: as active as MECO-1

adrenocorticotropic hormone (SYSMEHFRWGKPVGKKRRPVKVYPNGAEDESAEAFPLEF; mammalian melanocortin ACTH (1-39)) [obtained from Bachem Bioscience]
stimulation of cAMP production (RAW cells): dose-dependent fashion
